Columns and labels:
[1] = Mean arterial pressure and dermal irritation in the erectile function study; type: in vivo, Sprague Dawley rats; details: for MAP: mean ± standard deviation
Procedure: (§1) Erectile function was evaluated by means of the intracavernosal pressure/mean arterial pressure (ICP/MAP) ratio at 4 different times (0, 15, 30 and 45 minutes) after application of ganglionic electrical functional stimulus (EFS) of 8 Hz.
(§2) The formulated peptide (both with TFA counter-ion and Acetate) was applied topically to the penis of the rats 15 minutes before ICP/MAP measurements, at a dose of 1000 μg diluted in 200 μL of the formulation (dose of 4 mg/Kg), reaching a concentration of 5 mg/mL or 0.5% w/v of the peptide in the formulation. Sildenafil was applied SC, at a dose of 25 mg/Kg (1 mL/Kg) 30 minutes before ICP/MAP measurements.

[2] = tested on: erectile function of healthy rats; assay: Erectile function (ICP/MAP ratio) after ganglionic electrical stimulation; type: in vivo, Sprague Dawley rats; details: peptide topical 4 mg/Kg 15 min before; sildenafil SC 25 mg/Kg 30 min before; EFS 8 Hz; 0-45 min
Description: For this study, PnPP-19 was produced with TFA or Acetate as a counter-ion. Usually, peptides with TFA as a counter-ion are used in the preclinical stage of development; nevertheless, for safety purposes, the counter-ion is changed to acetate for clinical stage of development. […] Also, to compare if the counter-ion exchange would impact the biological effect of PnPP-19, two peptide batches was produced: one with the counter-ion TFA and another with the counter-ion Acetate. Sildenafil was used as a positive control (subcutaneously administration).
as §1, §2

[3] = Release test in Franz vertical diffusion cells; type: in vitro ADME; details: peptide applied in saline or in the buffer of the formulations; after 6 hours (peak) and until 24 hours
Procedure: For the release test, a cellulose acetate membrane was used to generate the physical barrier between a donor compartment, where the formulations are added, and the recipient compartment, where the peptide is measured.
(§3) The assays were conducted in Franz vertical diffusion cells with 1.767 cm^2 of area for diffusion of the peptide, containing a donor compartment with a capacity of 1 mL and a recipient compartment with a capacity of 7 mL. To the recipient compartment, 7 mL of the biorelevant solution were added, in which the media selected by preliminary studies was 20 mM sodium acetate buffer pH 5.0+0.5% Tween® 20. […] The cells were placed in a thermostatic bath, with a temperature of 37° C.±0.5° C., with the goal to mimic the surface temperature. The bioreceptor medium was subjected to 350 rpm agitation. In times 0.5-, 1-, 2-, 4-, 6- and 24 h, collections of 1 mL were made from the recipient compartment, in order to measure the peptide content.

[4] = Phase 1 clinical study: pharmacokinetics; type: in vivo, human; details: 12 subjects
Procedure: Related to the pharmacokinetic analysis, the following outcomes were considered: detection of BZ371A, and its fragments, in the blood at the following collected times: pre-dose, 15, 30, 60, 180 and 360 minutes; if detected, determine the pharmacokinetic parameters: maximum concentration, half-life, area under the curve, clearance, volume of distribution.

[5] = Physicochemical properties of PnPP-19 peptide (pI, pKa)
Description: Aspects of the disclosure relate to pharmaceutical compositions comprising a PnPP-19 peptide (e.g., a peptide comprising or consisting of the amino acid sequence set forth in SEQ ID NO: 1). PnPP-19 is a synthetic, non-toxic peptide composed of 19 amino acid residues originating from the PnTx2-6 toxin, which was isolated from the venom of the Brazilian armadeira spider (Phoneutria nigriventer). In some embodiments, the isolated peptide (e.g., PnPP-19) is presented as a freeze-dried white powder (e.g., a solid physical form). In some embodiments, PnPP-19 is an amphipathic peptide with about 26% cationic amino acid residues. In some embodiments, PnPP-19 is positively charged at pH 7.

[6] = Biodistribution and pharmacokinetics after topical administration of radiolabeled PnPP-19 in FAPP20; type: in vivo, rats
Procedure: In order to evaluate the in vivo permeation of the peptide (and/or its fragments) in the formulation FAPP20, a biodistribution study was carried out in healthy rats. The peptide was radiolabeled with iodine [^131I] NaI using chloramine T method.
The study was conducted considering the dose of 5 mg/ml; and the maximum area of genital application. The final application volume was 100 μL that results in a dose of 2 mg/kg. The evaluation of biodistribution was carried out after the administration of a single dose of the peptide, applied topically to the skin of the penis after trichotomy of the rat's genital area.
Regarding biodistribution data, radiolabeled peptide concentrations were higher in skin, foreskin and SMC tissue at all times studied. In the first analyzed time, of 15 minutes, it was already possible to detect the peptide in the target tissues: the SMC layer, and the first layer of the skin, where the penile nerves are found (herein called of foreskin), showing that the peptide is rapidly absorbed into the skin. Within 30 minutes, its detection falls at the initial application site (skin), and increases in the foreskin, showing that it continues to be absorbed, and remains stable in the SMC layer. Within 60 minutes it is practically undetectable in tissues (FIG. 4).
For the pharmacokinetic (PK) study, the blood of the animals was collected at 0 h (predose), 15, 30 and 60 minutes, 3, 8 and 24 hours. All samples collected were quantified in a Wizard 3 gamma counter (PerkinElmer) for later calculation of the percentage of dose applied per gram of organ. […] While 42% of the applied dose is in the first layer of the skin, the peptide is detected in up to 18% in the SMC layer. Both peptide and its fragments were not found systemically (<1%) in the organs of choice (kidneys, testicles and epididymis) or in the blood, at any of the evaluated time-points, showing that the formulation remains in the application site, with no systemic absorption.

[7] = Second permeation test in Franz cells; type: in vitro ADME; details: Strat-M membrane; applied in the FAPP20 buffer (20 mM sodium acetate buffer solution)
Procedure: In the first permeation assay, the physical barrier was the whole pig skin, which mimics the human stratum corneum. In the second permeation test, the physical barrier was the Strat-M membrane, which mimics the human stratum corneum.
as §3
In the first permeation assay, PnPP-19 was formulated with 6 μM of alpha cyclodextrin or with transcutol 15%.
Based on the release results described above, the 20 mM sodium acetate buffer pH 5.0+0.5% Tween® 20 was confirmed as the best receiving medium to be used in the permeation assay with Strat M membrane.

Row | Molecule | MAP ([1]; 0 min) | MAP ([1]; 15 min) | MAP ([1]; 30 min) | MAP ([1]; 45 min) | effect on MAP / systemic hypotension compared to vehicle ([1]; rats) | erectile function (ICP/MAP ratio) compared to negative control (vehicle) [2] | quantification of PnPP-19 in the receptor media (controls) [3] | plasma concentrations of BZ371A fragments ([4]; no detectable concentrations, limit of detection=40 ng/ml) [ng/mL] | plasma concentrations of BZ371A ([4]; no quantifiable concentrations, LIQ=50 ng/ml, pre-dose to 360 minutes) [ng/mL] | pKa [5] | applied dose/gram found in CC tissue (SMC layer) ([6]; 15 minutes after topical application to rat penis, normalized) | applied dose/gram found in the skin ([6]; 15 minutes after topical application to rat penis, normalized to total in all tissues) [%] | peptide and fragments found systemically (kidneys, testicles, epididymis, blood) ([6]; any of the evaluated time-points up to 24 hours) [%] | detection of PnPP-19 in the receptor compartment (control) [7]
1 | CCCc1nn(C)c2c(=O)[nH]c(-c3cc(S(=O)(=O)N4CCN(C)CC4)ccc3OCC)nc12 [Sildenafil, sildenafil] | 87 ± 10 (**) mmHg | 93 ± 8 (*) mmHg | 93 ± 8 (***) mmHg | 94 ± 7 (***) mmHg | significant decrease in MAP | not superior to the negative control group | – | – | – | – | – | – | – | –
2 | Ac-GERRQYFWIAWYKLANSKK-NH2 [PnPP-19] | – | – | – | – | – | – | can be quantified in the receptor media | < 40 | < 50 | 12.4 | up to 18% | 42 | < 1 | detected in the receptor compartment since initial time (0.5 h)

Reference: patent publication US20240317806A1, “TOPICAL PEPTIDE FORMULATION FOR THE TREATMENT OF SEXUAL DYSFUNCTION” (priority 2023, published 2024)
